# Experimental data published in patent publication EP4592286A1, “MACROCYCLIC NITROGEN-CONTAINING CROWN ETHER COMPOUND AND USE THEREOF AS PROTEIN KINASE INHIBITOR” (Artivila Biopharma, priority 2022, dated 2024).
# Legend:
# LRRK2 [1] = molecular target: T1, LRRK2 (Homo sapiens, UniProt Q5S007); test: experiment of inhibiting LRRK2 kinase activity (ADP-Glo method); type: biochemical; details: Table 4
# Procedure: The inhibitory effect of the compounds on the activity of LRRK2 kinase was detected by ADP-Glo method. The diluted solutions of the compounds were transfered to a 384-well plate (784075, Greiner), the plate was sealed and centrifuged at a speed of 1000 g for 1 minute. A kinase solution at 2-fold final concentration was prepared with 1×kinase buffer, 2.5 µl of the kinase solution with 2-fold final concentration was added to the wells, the plate was centrifuged at 1000 g for 30 seconds, and left at room temperature for 10 minutes. A mixed solution of ATP and kinase substrate at 2-fold final concentration was prepared with 1×kinase buffer, and 2.5 µL of mixed solution of ATP and substrate at 2-fold final concentration was added to start the reaction. The plate was centrifuged at 1000 g for 30 seconds, sealed and left at room temperature for 2 hours. 4 µL of ADP-Glo reagent was added and incubated at room temperature for 40 minutes; 8 µL kinase detection reagent was added and incubated at room temperature for another 40 minutes. The luminescence signal value was detected on Envision 2104 microplate reader. The conversion inhibition rate%=100-(compound signal value-positive control signal value)/(blank control signal value-positive control signal value)×100.
# The IC50 was calculated with GraphPad 6.0 and the dose-responsive curve of the compounds was plotted as follows: y=Bottom+(Top-Bottom)/(1+10^((logic50-x)×hillslope)), where x was logarithm of inhibitor concentration; and y was % inhibition rate.
# [2] = molecular target: T2, endogenous phosphorylated LRRK2 (S935) (Homo sapiens, UniProt Q5S007); test: detection of endogenous phosphorylated LRRK2 (S935) in A549 cells (Western blot); type: cell-based; details: 15 hours; for IC50: A549 cells, Table 11, read-out: IC50 of inhibitory activity on LRRK2 (S935) activity in A549 cells (column head: Inhibition rate); for inhibition at 1 µM / inhibition at 2 µM: LRRK2 (S935) activity in A549 cells, read-out: Inhibition rate
# T2 construct: Detection of endogenous phosphorylated LRRK2 (S935) in A549 cells; endogenous in cells; host or cells: A549
# Procedure: Detection of endogenous phosphorylated LRRK2 (S935) in A549 cells
# A549 cells were resuspended in serum-free 1640 medium at a density of 1×10^6 cells/ml, and inoculated into a 6-well plate at 1 ml/well, and cultured at 37°C and 5% CO2 for 6-8 hours. 1 microliter of compound solution in DMSO or DMSO (volume ratio of 0.1%) was added, mixed evenly, and cultivated at 37°C and 5% CO2 for 15 hours. Cells were collected, 50 microliters of RIPA III lysis solution were added to each sample to lyse cells on ice for 15 minutes, centrifuged at 4°C and 13000 rpm for 30 minutes, the supernatant was collected, the protein concentration of cell lysis solution was measured by BCA, and the protein concentrations of all samples were normalized. 5×sample loading buffer were added and kept at 95°C for 10 minutes. The content of phosphorylated S935 of endogenous LRRK2 was detected by Western blot, using antibody against phosphorylated LRRK2 (S935) (Abcam#133450). The signal intensity of phosphorylated LRRK2 (S935) was counted by Image J, the signal of phosphorylated LRRK2 (S935) in a sample was normalized by β-actin, and the data was analyzed.
# JAK3 = molecular target: T3, JAK3 (Homo sapiens, UniProt P52333); test: experiment of inhibiting kinase activity (Caliper mobility shift assay), JAK3; type: biochemical; details: at 10 nM; read-out: inhibition rate JAK3
# T3 sequence (P52333 1-1124): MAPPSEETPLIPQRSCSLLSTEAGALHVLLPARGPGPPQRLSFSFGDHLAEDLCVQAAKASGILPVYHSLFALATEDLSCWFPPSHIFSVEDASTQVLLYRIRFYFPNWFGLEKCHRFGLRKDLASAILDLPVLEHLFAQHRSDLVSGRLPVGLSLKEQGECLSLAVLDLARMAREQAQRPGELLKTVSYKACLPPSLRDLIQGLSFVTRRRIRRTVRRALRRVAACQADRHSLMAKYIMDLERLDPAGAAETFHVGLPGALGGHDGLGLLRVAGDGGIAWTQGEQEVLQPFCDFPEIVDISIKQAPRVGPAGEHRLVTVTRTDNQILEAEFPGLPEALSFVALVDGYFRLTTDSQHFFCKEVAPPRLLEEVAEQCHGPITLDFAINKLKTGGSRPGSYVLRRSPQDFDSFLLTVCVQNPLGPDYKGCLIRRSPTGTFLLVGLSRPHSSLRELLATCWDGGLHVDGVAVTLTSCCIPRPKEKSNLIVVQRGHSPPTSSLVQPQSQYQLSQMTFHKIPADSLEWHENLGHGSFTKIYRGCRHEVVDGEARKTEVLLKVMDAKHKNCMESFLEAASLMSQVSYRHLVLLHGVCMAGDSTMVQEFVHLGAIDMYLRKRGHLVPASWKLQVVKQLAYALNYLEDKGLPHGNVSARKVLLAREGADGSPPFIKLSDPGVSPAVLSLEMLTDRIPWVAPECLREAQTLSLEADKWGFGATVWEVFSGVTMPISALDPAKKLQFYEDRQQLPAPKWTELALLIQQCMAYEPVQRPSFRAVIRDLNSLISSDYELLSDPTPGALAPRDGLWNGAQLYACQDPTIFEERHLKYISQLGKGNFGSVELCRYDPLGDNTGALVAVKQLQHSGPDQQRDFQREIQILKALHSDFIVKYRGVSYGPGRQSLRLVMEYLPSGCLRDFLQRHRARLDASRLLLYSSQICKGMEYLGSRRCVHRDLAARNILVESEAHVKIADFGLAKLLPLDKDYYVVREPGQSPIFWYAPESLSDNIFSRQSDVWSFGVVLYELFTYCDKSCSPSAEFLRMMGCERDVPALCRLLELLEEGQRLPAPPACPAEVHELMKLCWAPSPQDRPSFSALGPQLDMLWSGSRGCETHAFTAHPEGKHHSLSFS
# In short: (§1)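 IC50 values come from variable-slope fits of % conversion inhibition versus log compound concentration. Kinase and inhibitor were preincubated for 10 min at room temperature, and the reaction was then initiated with ATP and substrate and read by mobility shift.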
# TYK2 = TYK2 (Homo sapiens, UniProt P29597); test: experiment of inhibiting kinase activity, TYK2; type: biochemical; details: at 10 nM; read-out: inhibition rate TYK2
# Procedure: (§2) The inhibition rates of tested compounds on JAK1, JAK2, JAK3, TYK2, CDK7, CDK9, EGFR (T790M) and LRRK2 kinases were measured. The test concentrations of the compounds were 10 nM and 100 nM, and the detection was performed by replicate wells. Alternatively, compounds were 3-fold serial diluted from 10 µM for 10 concentrations in replicate wells.
# [3] = measurement of the solubility of compounds in water and diluted hydrochloric acid; type: physicochemical; details: thermodynamic from solid
# Procedure: Example 117: measurement of the solubility of compounds in water and diluted hydrochloric acid
# The compounds were dissolved in acetonitrile (LCMS pure) and prepared into standard samples having the concentration gradient of 1000 µg/mL, 500 µg/mL, 250 µg/mL, 125 µg/mL, 62.5 µg/mL, and 31.25 µg/mL.
# (§3) About 1.0 mg of the powder of the compound to be tested was weighed and added to 0.3 mL of ultrapure water (pH-6), the resulting mixture was shaked thoroughly at room temperature overnight and centrifuged, and the supernatant was taken and diluted 10 times with acetonitrile. The sample was analyzed after mixing evenly.
# as §3, with “153.8 µL of 6 M HCl was pipetted, 20 mL of water was added, and mixed evenly to prepare diluted hydrochloric acid solution A (pH-1.5). About” for “About”, “diluted hydrochloric acid solution A,” for “ultrapure water (pH-6),”, “for 1 hour” for “overnight”
# The standard sample and the sample to be tested were analyzed by Shimadzu LCMS-2020, where chromatographic column was Skim-psck GIST 5 µm C18 2.1*[…]; mobile phase A was water and mobile phase B was methanol; and flow rate was 0.3 mL/min. The gradient of B was as the following: 0 min: 10%; 0-1.0 min: 10%; 1.0-2.5 min: 95%; 3.0-4.0 min: 95%; 4.0-4.1 min: 10%; 4.1-6.0 min: 10%.
# The relationship between the concentration and peak area of the standard sample was ploted into a standard curve, and the concentration of the sample to be tested was calibrated using this standard curve. Compound solubility = concentration of the sample to be tested × 10 [formula]
# LRRK2 [4] = molecular target: T1, LRRK2; test: experiment of inhibiting kinase activity, LRRK2; type: biochemical; details: at 10 nM; read-out: inhibition rate LRRK2
# Procedure: as §2
# JAK1 = JAK1 (Homo sapiens, UniProt P23458); test: experiment of inhibiting kinase activity (Caliper mobility shift assay), JAK1; type: biochemical; details: at 10 nM; read-out: inhibition rate JAK1
# In short: as §1
# JAK2 = JAK2 (Homo sapiens, UniProt O60674); test: experiment of inhibiting kinase activity (Caliper mobility shift assay), JAK2; type: biochemical; details: at 10 nM; read-out: inhibition rate JAK2
# In short: as §1
# T1 sequence (Q5S007 whole entry): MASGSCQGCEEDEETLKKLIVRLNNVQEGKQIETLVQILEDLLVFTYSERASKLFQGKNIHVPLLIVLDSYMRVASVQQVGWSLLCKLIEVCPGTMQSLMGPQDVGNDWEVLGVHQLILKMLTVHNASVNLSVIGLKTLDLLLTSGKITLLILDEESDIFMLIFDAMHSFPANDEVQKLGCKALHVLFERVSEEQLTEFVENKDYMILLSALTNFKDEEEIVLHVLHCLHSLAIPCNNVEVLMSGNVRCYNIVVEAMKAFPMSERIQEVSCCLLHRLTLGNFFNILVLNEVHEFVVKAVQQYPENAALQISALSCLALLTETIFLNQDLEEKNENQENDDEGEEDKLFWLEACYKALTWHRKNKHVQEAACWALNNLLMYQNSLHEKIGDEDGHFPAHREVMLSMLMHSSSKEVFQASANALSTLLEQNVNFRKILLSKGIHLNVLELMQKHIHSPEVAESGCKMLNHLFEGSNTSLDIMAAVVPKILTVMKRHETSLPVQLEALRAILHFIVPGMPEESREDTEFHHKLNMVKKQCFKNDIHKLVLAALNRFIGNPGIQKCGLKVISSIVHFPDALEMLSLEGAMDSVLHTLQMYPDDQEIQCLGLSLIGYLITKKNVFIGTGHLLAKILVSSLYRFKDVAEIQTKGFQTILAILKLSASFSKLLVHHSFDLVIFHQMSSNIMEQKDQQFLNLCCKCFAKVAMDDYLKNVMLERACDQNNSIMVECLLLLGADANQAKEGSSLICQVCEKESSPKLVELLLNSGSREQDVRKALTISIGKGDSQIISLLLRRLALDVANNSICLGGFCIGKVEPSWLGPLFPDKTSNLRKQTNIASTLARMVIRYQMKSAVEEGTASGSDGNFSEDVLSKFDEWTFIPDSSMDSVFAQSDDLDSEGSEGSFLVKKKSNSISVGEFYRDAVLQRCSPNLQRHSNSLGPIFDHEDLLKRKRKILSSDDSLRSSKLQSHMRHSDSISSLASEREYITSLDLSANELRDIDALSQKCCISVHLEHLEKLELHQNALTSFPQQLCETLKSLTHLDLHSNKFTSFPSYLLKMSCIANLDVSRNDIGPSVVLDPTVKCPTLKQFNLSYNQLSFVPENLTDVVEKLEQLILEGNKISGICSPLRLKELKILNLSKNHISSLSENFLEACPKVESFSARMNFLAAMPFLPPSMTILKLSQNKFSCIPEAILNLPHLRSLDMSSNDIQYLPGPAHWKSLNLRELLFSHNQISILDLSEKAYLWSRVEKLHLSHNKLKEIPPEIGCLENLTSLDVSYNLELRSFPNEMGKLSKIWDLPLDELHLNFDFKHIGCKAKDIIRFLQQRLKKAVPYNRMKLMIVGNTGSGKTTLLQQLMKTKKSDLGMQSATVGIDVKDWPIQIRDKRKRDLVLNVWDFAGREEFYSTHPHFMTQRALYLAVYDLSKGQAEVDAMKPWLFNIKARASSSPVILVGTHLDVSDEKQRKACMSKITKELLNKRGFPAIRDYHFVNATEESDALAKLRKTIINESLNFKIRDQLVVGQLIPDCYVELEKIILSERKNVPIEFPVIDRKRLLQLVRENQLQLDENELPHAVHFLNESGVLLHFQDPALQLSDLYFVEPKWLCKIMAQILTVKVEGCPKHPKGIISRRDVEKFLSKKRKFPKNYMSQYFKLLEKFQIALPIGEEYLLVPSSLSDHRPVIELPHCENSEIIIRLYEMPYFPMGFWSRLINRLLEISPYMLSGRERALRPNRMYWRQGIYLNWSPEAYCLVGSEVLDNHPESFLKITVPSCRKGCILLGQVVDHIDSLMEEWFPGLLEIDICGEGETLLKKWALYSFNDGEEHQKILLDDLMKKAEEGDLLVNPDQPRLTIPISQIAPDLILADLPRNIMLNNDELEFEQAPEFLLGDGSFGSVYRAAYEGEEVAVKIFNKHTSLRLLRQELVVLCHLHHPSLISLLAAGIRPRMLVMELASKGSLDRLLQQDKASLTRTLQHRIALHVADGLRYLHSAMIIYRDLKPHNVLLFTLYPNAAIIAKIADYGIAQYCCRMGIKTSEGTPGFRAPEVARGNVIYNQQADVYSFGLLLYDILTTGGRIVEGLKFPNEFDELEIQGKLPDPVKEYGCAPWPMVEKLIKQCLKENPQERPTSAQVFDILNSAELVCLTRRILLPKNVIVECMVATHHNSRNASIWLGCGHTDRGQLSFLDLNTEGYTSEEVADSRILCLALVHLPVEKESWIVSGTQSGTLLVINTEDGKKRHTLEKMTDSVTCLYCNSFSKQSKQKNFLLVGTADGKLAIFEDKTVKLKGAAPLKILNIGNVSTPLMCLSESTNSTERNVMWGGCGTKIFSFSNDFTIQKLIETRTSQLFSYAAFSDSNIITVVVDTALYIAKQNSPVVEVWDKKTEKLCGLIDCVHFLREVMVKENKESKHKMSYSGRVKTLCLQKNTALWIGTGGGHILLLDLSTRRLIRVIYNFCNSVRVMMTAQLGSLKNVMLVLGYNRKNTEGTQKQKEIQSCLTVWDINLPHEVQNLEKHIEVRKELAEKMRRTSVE
# T2 sequence (Q5S007 whole entry): as above
# Chain of JAK1 (P23458 whole entry): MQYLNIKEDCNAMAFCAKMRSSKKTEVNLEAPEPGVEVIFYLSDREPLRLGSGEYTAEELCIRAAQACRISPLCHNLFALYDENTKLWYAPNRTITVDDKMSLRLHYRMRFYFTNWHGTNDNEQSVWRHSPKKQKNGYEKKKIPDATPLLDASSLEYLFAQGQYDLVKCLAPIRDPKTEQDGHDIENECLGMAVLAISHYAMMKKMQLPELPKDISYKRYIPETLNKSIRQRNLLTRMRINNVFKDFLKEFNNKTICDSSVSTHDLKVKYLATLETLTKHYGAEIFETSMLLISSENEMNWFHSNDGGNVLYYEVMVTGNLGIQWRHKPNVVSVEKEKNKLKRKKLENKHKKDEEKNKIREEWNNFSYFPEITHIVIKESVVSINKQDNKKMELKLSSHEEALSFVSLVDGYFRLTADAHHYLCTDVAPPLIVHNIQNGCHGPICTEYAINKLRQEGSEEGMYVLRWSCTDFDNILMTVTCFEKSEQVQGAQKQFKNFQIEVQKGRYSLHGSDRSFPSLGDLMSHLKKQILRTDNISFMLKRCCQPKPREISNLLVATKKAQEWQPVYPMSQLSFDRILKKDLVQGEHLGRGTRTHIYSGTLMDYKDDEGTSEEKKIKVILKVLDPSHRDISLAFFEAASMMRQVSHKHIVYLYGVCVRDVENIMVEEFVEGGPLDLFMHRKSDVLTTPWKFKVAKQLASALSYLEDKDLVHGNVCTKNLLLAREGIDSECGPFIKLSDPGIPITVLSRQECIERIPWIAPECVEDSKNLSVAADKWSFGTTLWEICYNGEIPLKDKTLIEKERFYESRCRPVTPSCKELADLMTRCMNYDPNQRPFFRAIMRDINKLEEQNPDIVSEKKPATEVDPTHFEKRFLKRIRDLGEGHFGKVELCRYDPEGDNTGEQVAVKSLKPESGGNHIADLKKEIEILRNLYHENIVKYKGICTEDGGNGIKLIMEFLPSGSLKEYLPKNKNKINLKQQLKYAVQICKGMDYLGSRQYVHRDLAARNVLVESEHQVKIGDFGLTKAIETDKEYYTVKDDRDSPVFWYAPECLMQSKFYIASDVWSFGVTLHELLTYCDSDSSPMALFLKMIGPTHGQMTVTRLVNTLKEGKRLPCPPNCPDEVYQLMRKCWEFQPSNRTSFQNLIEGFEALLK
# Chain of TYK2 (P29597 whole entry): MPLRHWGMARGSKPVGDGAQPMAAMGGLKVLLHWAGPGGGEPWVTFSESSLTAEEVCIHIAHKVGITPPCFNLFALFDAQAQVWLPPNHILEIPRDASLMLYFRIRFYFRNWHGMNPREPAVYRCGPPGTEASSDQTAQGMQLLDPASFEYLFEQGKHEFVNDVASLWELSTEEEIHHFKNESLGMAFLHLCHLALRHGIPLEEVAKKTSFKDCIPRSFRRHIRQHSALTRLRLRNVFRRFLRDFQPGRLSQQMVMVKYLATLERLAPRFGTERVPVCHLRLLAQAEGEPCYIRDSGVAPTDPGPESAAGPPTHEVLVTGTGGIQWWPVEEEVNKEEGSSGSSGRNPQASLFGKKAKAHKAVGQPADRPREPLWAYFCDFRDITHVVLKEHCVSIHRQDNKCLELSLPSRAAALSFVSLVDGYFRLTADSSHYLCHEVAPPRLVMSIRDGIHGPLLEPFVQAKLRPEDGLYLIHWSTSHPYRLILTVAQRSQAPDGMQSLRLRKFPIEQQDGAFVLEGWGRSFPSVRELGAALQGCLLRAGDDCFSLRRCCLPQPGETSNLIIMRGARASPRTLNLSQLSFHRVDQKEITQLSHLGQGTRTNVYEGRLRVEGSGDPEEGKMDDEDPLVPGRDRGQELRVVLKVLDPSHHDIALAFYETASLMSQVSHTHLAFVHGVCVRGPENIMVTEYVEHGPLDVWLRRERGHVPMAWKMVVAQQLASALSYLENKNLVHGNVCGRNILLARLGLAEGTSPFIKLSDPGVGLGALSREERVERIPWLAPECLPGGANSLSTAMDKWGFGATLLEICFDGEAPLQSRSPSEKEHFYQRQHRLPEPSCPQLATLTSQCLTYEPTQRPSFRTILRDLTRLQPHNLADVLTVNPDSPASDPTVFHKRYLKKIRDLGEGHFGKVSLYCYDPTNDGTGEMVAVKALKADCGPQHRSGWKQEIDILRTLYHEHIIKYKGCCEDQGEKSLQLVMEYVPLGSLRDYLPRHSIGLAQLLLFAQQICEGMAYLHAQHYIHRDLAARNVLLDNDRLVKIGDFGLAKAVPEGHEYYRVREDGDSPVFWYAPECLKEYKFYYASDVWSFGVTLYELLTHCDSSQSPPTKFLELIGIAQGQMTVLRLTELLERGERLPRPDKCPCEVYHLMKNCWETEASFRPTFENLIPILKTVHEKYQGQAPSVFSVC
compound,measurement,setting,value
"CN1CCOc2ccc(Nc3ncc(C(F)(F)F)c(O[C@H]4CC[C@@](C)(O)CC4)n3)cc2OCC1 [Example 93, (1s,4s)-1-methyl-4-((2-((4-methyl-3,4,5,6-tetrahydro-2H-benzo[b][1,4,7]dioxazolin-9-yl)amino)-5-(trifluoromethyl)pyrimidin-4-yl)oxy)cyclohexan-1-ol]",IC50,LRRK2 [1],< 100 nM
same,IC50,[2],100 to 500 nM
"CN1CCOc2ccc(Nc3ncc(F)c(O[C@H]4CC[C@@](C)(O)CC4)n3)cc2OCC1 [Example 100, (1s,4s)-4-((5-fluoro-2-((4-methyl-3,4,5,6-tetrahydro-2H-benzo[b][1,4,7]dioxazolin-9-yl)amino)pyrimidin-4-yl)oxy)-1-methylcyclohexan-1-ol]",IC50,LRRK2 [1],100 to 500 nM
same,inhibition at 1 µM,[2],40 to 79%
"CN1CCOc2ccc(Nc3ncc(C(F)(F)F)c(NC[C@@H]4CCO4)n3)cc2OCC1 [Example 92, (S)-N^2-(4-methyl-3,4,5,6-tetrahydro-2H-benzo[b][1,4,7]dioxazolin-9-yl)-N^4-(oxetan-2-ylmethyl)-5-(trifluoromethyl)pyrimidin-2,4-diamine]",IC50,LRRK2 [1],< 100 nM
same,inhibition at 2 µM,[2],40 to 79%
"CN1CCOCCOc2cc(Nc3nc(-c4cnn([C@@H](CC#N)C5CCCC5)c4)c4cc[nH]c4n3)ccc2OCC1 [Example 75, (S)-3-cyclopentyl-3-(4-(2-((7-methyl-2,3,6,7,8,9-hexahydro-5H-benzo[b][1,4,7]trioxa[10]azacyclododecan-13-yl)amino)-7H-pyrrolo[2,3-d]pyrimidin-4-yl)-1H-pyrazol-1-yl) propionitrile]",inhibition at 0.01 µM,JAK3,> 80%
same,inhibition at 0.01 µM,TYK2,> 80%
same,solubility at 1 h,"[3]; simulated gastric fluid, diluted hydrochloric acid solution A (pH-1.5), room temperature, 1 hour",> 3500 µg/mL
same,solubility,"[3]; ultrapure water (pH-6), room temperature overnight",120 µg/mL
same,inhibition at 0.01 µM,LRRK2 [4],> 80%
same,inhibition at 0.01 µM,JAK1,> 80%
same,inhibition at 0.01 µM,JAK2,> 80%
"CN1CCOc2ccc(Nc3ncc(Cl)c(O[C@H]4CC[C@@](C)(O)CC4)n3)cc2OCC1 [Example 102, (1s,4s)-4-((5-chloro-2-((4-methyl-3,4,5,6-tetrahydro-2H-benzo[b][1,4,7]dioxazolin-9-yl)amino)pyrimidin-4-yl)oxy)-1-methylcyclohexan-1-ol]",IC50,LRRK2 [1],< 100 nM
same,inhibition at 1 µM,[2],> 0%
"CN1CCOCCOc2ccc(Nc3ncc(C(F)(F)F)c(NCCS(C)(=O)=O)n3)cc2OCC1 [Example 89, N^2-(7-methyl-2,3,6,7,8,9-hexahydro-5H-benzo[b][1,4,7]trioxa[10]azacyclododecyl-12-yl)-N^4-(2-(methylsulfonyl)ethyl)-5-(trifluoromethyl)pyrimidin-2,4-diamine]",inhibition at 2 µM,[2],40 to 79%
"CN1CCOCCOc2ccc(Nc3ncc(F)c(O[C@H]4CC[C@@](C)(O)CC4)n3)cc2OCC1 [Example 103, (1s,4s)-4-((5-fluoro-2-((7-methyl-2,3,6,7,8,9-hexahydro-5H-benzo[b][1,4,7]trioxa[10]azacyclododecan-12-yl)amino)pyrimidin-4-yl)oxy)-1-methylcyclohexan-1-ol]",IC50,LRRK2 [1],100 to 500 nM
same,IC50,[2],< 100 nM
"CN1CCOc2ccc(Nc3ncc(C(F)(F)F)c(Nc4ccccc4)n3)cc2OCC1 [Example 91, N^2-(4-methyl-3,4,5,6-tetrahydro-2H-benzo[b][1,4,7]dioxazolin-9-yl)-N^4-phenyl-5-(trifluoromethyl)pyrimidin-2,4-diamine]",IC50,LRRK2 [1],< 100 nM
same,IC50,[2],< 100 nM
